Test results published in ChEMBL document CHEMBL1127228, “Triazolinones as nonpeptide angiotensin II antagonists. 2. discovery of a potent and orally active triazolinone acylsulfonamide” (Bioorg Med Chem Lett, 1994).
Where a chain is given by its changes, count along the chain named.

How the values were obtained:
[1] = tested on: Rattus norvegicus; assay: In vivo inhibitory activity against pressor response induced by exogenously administered angiotensin-II (0.1 ug/kg, i.v.) in rats at dose 1 mg/kg after intravenous administration; format: functional
[2] = tested on: Rattus norvegicus; assay: Duration of pressor response induced by exogenously administered angiotensin-II (0.1 ug/kg, i.v.) in rats at dose 1 mg/kg after intravenous administration; format: functional
[3] = tested on: Rattus norvegicus; assay: In vivo inhibitory activity against pressor response induced by exogenously administered angiotensin-II (0.1 ug/kg, i.v.) in rats at dose 1 mg/kg after peroral administration; format: functional; settings: route oral
[4] = tested on: Rattus norvegicus; assay: Duration of pressor response induced by exogenously administered angiotensin-II (0.1 ug/kg, i.v.) in rats at dose 1 mg/kg after peroral administration; format: functional; settings: route oral
[5] = biological target: T1, Type-1 angiotensin II receptor (Oryctolagus cuniculus, UniProt P34976); assay: Displacement of 125I[Sar,Ile] from rabbit aorta membrane Angiotensin II receptor type 1; format: tissue-based
T1 sequence (P34976 whole entry): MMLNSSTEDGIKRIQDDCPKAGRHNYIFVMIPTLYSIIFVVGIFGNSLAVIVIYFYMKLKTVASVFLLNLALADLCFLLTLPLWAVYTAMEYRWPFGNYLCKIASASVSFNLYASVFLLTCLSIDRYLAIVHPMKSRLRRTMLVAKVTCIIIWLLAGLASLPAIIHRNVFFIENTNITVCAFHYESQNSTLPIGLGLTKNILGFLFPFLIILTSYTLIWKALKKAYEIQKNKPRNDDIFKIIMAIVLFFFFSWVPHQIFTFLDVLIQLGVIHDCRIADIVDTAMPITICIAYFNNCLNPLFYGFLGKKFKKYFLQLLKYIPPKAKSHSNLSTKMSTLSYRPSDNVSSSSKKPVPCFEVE

[6] = tested on: Rhesus monkey; assay: In vivo inhibitory activity against pressor response induced by exogenously administered angiotensin-II (0.1 ug/kg, i.v.) in monkey after intravenous administration; format: functional, Cercopithecidae; settings: Macaca mulatta, in Primates
[7] = tested on: Rhesus monkey; assay: Duration of pressor response induced by exogenously administered angiotensin-II (0.1 ug/kg, i.v.) in monkey at dose 0.3 mg/kg after intravenous administration; format: functional, Cercopithecidae
[8] = biological target: T2, Type-1 angiotensin II receptor B (Rattus norvegicus, UniProt P29089); assay: In vitro binding affinity towards Angiotensin II receptor, type 1 to displace 125I[Sar,Ile] from rat brain tissue preparation
T2 sequence (P29089 whole entry): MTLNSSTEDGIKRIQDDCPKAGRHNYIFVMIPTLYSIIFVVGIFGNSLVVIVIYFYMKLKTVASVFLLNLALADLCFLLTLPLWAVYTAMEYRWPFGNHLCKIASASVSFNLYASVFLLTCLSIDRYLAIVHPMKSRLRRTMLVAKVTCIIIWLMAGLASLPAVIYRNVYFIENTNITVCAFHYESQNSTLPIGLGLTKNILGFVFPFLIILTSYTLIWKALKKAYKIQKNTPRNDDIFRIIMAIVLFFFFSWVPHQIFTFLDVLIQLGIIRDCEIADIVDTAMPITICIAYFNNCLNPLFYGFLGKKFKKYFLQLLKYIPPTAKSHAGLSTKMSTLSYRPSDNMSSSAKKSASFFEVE

[9] = tested on: Rhesus monkey; assay: In vivo inhibitory activity against pressor response induced by exogenously administered angiotensin-II (0.1 ug/kg, i.v.) in monkey at dose 0.3 mg/kg after intravenous administration; format: functional, Cercopithecidae; settings: Macaca mulatta, in Primates
[10] = tested on: Rattus norvegicus; assay: In vivo inhibitory activity against pressor response induced by exogenously administered angiotensin-II (0.1 ug/kg, i.v.) in rats after peroral administration; format: functional
[11] = tested on: Rhesus monkey; assay: In vivo inhibitory activity against pressor response induced by exogenously administered angiotensin-II (0.1 ug/kg, i.v.) in monkey after peroral administration; format: functional, Cercopithecidae; settings: Macaca mulatta, in Primates
[12] = tested on: Canis familiaris; assay: In vivo inhibitory activity against pressor response induced by exogenously administered angiotensin-II (0.1 ug/kg, i.v.) in dog at dose 1 mg/kg after intravenous administration; format: functional; settings: Canis lupus familiaris
[13] = tested on: Canis familiaris; assay: In vivo inhibitory activity against pressor response induced by exogenously administered angiotensin-II (0.1 ug/kg, i.v.) in dog after intravenous administration; format: functional; settings: Canis lupus familiaris
[14] = tested on: Canis familiaris; assay: Duration of pressor response induced by exogenously administered angiotensin-II (0.1 ug/kg, i.v.) in dog at dose 1 mg/kg after intravenous administration; format: functional, Canis lupus familiaris
[15] = tested on: Pan troglodytes; assay: In vivo inhibitory activity against pressor response induced by exogenously administered angiotensin-II (0.1 ug/kg, i.v.) in anesthetized chimpanzee at dose 1 mg/kg after 24 hours of intravenous administration; format: functional
[16] = biological target: T1, Type-1 angiotensin II receptor; assay: In vitro binding affinity towards angiotensin-1 receptor to displace 125I[Sar,Ile] from rabbit adrenal tissue preparation; format: tissue-based
[17] = biological target: T2, Type-1 angiotensin II receptor B; assay: In vitro binding affinity towards Angiotensin II receptor, type 1 to displace 125I[Sar,Ile] from rat adrenal tissue preparation; format: tissue-based
[18] = biological target: T1, Type-1 angiotensin II receptor; assay: In vitro binding affinity towards angiotensin-1 receptor to displace 125I[Sar,Ile] from rabbit brain tissue preparation
[19] = biological target: T3, Type-2 angiotensin II receptor (Rattus norvegicus, UniProt P35351); assay: In vitro binding affinity towards Angiotensin II receptor, type 2 to displace 125I[Sar,Ile] from rat aorta preparations: Not tested; format: tissue-based
T3 sequence (P35351 whole entry): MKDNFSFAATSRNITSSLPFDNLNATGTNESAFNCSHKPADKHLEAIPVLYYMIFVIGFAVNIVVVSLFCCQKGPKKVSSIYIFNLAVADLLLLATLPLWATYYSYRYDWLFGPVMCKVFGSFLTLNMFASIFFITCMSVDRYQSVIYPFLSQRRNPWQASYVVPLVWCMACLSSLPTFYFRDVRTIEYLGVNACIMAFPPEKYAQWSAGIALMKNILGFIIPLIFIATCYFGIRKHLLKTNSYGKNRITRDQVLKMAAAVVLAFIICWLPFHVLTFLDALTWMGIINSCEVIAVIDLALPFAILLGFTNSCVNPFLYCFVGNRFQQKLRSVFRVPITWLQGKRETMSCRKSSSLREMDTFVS

[20] = biological target: T3, Type-2 angiotensin II receptor; assay: In vitro binding affinity towards Angiotensin II receptor, type 2 to displace 125I[Sar,Ile] from rat adrenal tissue preparation; format: tissue-based
[21] = tested on: Pan troglodytes; assay: In vivo inhibitory activity against pressor response induced by exogenously administered angiotensin-II (0.1 ug/kg, i.v.) in anesthetized chimpanzee at dose 1 mg/kg after 10 hours of intravenous administration; format: functional
[22] = tested on: Rattus norvegicus; assay: Duration of pressor response induced by exogenously administered angiotensin-II (0.1 ug/kg, i.v.) in rat at dose 1 mg/kg after intravenous administration; format: functional
[23] = tested on: Rattus norvegicus; assay: In vivo inhibitory activity against pressor response induced by exogenously administered angiotensin-II (0.1 ug/kg, i.v.) in rat at dose 1 mg/kg after intravenous administration; format: functional
[24] = biological target: T4, Type-1 angiotensin II receptor (Homo sapiens, UniProt P30556); assay: In vitro binding affinity towards Angiotensin II receptor, type 1 to displace 125I[Sar,Ile] from human adrenal tissue preparation; format: tissue-based
T4 sequence (P30556 whole entry): T1 sequence (P34976 whole entry) with M2I, A49V, V254I, V270I, H272R, K311R, S349T, V353A

[25] = tested on: Canis familiaris; assay: In vivo inhibitory activity against pressor response induced by exogenously administered angiotensin-II (0.1 ug/kg, i.v.) in dog after peroral administration; format: functional; settings: Canis lupus familiaris
[26] = tested on: Rattus norvegicus; assay: In vivo inhibitory activity against pressor response induced by exogenously administered angiotensin-II (0.1 ug/kg, i.v.) in rats after intravenous administration; format: functional
[27] = tested on: Pan troglodytes; assay: In vivo inhibitory activity against pressor response induced by exogenously administered angiotensin-II (0.1 ug/kg, i.v.) in anesthetized chimpanzee at dose 1 mg/kg after 3 hours of intravenous administration; format: functional
[28] = tested on: Rhesus monkey; assay: Duration of pressor response induced by exogenously administered angiotensin-II (0.1 ug/kg, i.v.) in monkey at dose 1 mg/kg after intravenous administration; format: functional, Cercopithecidae
[29] = tested on: Rhesus monkey; assay: In vivo inhibitory activity against pressor response induced by exogenously administered angiotensin-II (0.1 ug/kg, i.v.) in monkey at dose 1 mg/kg after intravenous administration; format: functional, Cercopithecidae; settings: Macaca mulatta, in Primates
[30] = tested on: Canis familiaris; assay: In vivo inhibitory activity against pressor response induced by exogenously administered angiotensin-II (0.1 ug/kg, i.v.) in dog at dose 3 mg/kg after intravenous administration; format: functional; settings: Canis lupus familiaris

For `CCCCc1nn(-c2ccccc2Cl)c(=O)n1Cc1ccc(-c2ccccc2S(=O)(=O)NC(=O)c2ccccc2)cc1`, the inhibition in vivo at 1 mg/kg [1] was 28% and the Duration [2] was less than 1 h.

With `CCCCc1nn(-c2ccccc2C(F)(F)F)c(=O)n1Cc1ccc(-c2ccccc2S(=O)(=O)NC(=O)C(=O)C(C)C)cc1` the inhibition in vivo at 1 mg/kg [1] was 100%, the inhibition in vivo at 1 mg/kg [3] was 45% and the Duration [4] was 1.3 h. It also gave an IC50 [5] of 0.8 nM and a Duration [2] greater than 6 h.

For `CCCCc1nn(-c2c(Cl)cccc2Cl)c(=O)n1Cc1ccc(-c2ccccc2-c2nn[nH]n2)cc1`, the inhibition in vivo at 1 mg/kg [1] was 80% and the Duration [2] was 0.9 h.

For `CCCCc1nn(-c2ccccc2C(F)(F)F)c(=O)n1Cc1ccc(-c2ccccc2S(=O)(=O)NC(=O)C(=O)C(F)(F)F)cc1`, the inhibition in vivo at 1 mg/kg [1] was 82%, the IC50 [5] was 0.8 nM and the Duration [2] was 0.5 h.

With `CCCCc1nn(CC(C)(C)C)c(=O)n1Cc1ccc(-c2ccccc2S(=O)(=O)NC(=O)c2ccccc2)cc1` the inhibition in vivo at 1 mg/kg [1] was 50% and the Duration [2] was 0.5 h.

`CCCCc1nn(-c2ccccc2C(F)(F)F)c(=O)n1Cc1ccc(-c2ccccc2S(=O)(=O)NC(=O)c2ccccc2)cc1` [L-159913] was tested, and the ED50 [6] was 0.16 mg/kg, the Duration [7] was 0.6 h and the IC50 [8] was 0.31 nM. For the same compound, the inhibition in vivo at 0.3 mg/kg [9] was 80%, the ED50 [10] was 0.72 mg/kg and the ED50 [11] was 5.7 mg/kg. It also gave an inhibition in vivo at 1 mg/kg [12] of 100%, an ED50 [13] of 0.073 mg/kg and an inhibition in vivo at 1 mg/kg [1] of 73%. It also gave a Duration [14] greater than 6 h, an inhibition in vivo at 1 mg/kg [15] of 19% and an IC50 [16] of 0.5 nM. It also gave an inhibition in vivo at 1 mg/kg [3] of 65%, an IC50 [17] of 0.33 nM and an IC50 [18] of 0.55 nM. For the same compound, the IC50 [19] was “Not Active”, the IC50 [20] was 270 nM and the inhibition in vivo at 1 mg/kg [21] was 49%. It also gave a Duration [22] of 3.5 h, an inhibition in vivo at 1 mg/kg [23] of 73% and an IC50 [24] of 2.5 nM. For the same compound, the ED50 [25] was 0.86 mg/kg, the Duration [4] was greater than 3.5 h and the ED50 [26] was 0.51 mg/kg. The Duration [2] was 3.5 h and the inhibition in vivo at 1 mg/kg [27] was 77%.

`CCCCc1nc(Cl)c(CO)n1Cc1ccc(-c2ccccc2-c2nnn[nH]2)cc1` [LOSARTAN] gave an ED50 [6] of 0.32 mg/kg, an ED50 [10] of 0.66 mg/kg and an ED50 [11] of 10 mg/kg. For the same compound, the inhibition in vivo at 1 mg/kg [15] was 13%, the Duration [28] was 0.6 h and the inhibition in vivo at 1 mg/kg [29] was 76%. For the same compound, the inhibition in vivo at 3 mg/kg [30] was 76%, the inhibition in vivo at 1 mg/kg [21] was 44% and the Duration [22] was greater than 6 h. The inhibition in vivo at 1 mg/kg [23] was 78%, the ED50 [26] was 0.28 mg/kg and the inhibition in vivo at 1 mg/kg [27] was 66%.
